Measurements reported in ChEMBL document CHEMBL3045006, “Synthesis and anticonvulsant activity of 8-alkoxy-5,6-dihydro-4H-benzo[f][1,2,4]triazolo[4,3-a]azepine derivatives” (Med Chem Res, 2012).
The source made the active and inactive calls. The rule behind the calls is not given here.

How the values were obtained:
[1] = test system: Mus musculus; assay: Protective index, ratio of TD50 for Mus musculus Swiss (mouse) to ED50 for Mus musculus Swiss (mouse) by subcutaneous pentylenetetrazole-induced seizure test; format: functional
[2] = species on record: Mus musculus; assay: Protective index, ratio of TD50 for Mus musculus Swiss (mouse) to ED50 for Mus musculus Swiss (mouse) by maximal electroshock-induced seizure test; format: functional
[3] = (§1) Neurotoxicity in ip dosed Mus musculus Swiss (mouse) assessed as minimum motor impairment by rotarod test; format: toxicity, organism-based; settings: Swiss, in vivo
[4] = test system: Mus musculus; assay: Anticonvulsant activity against subcutaneous pentylenetetrazole-induced seizures in ip dosed Mus musculus Swiss (mouse) at 30 mg/kg, ip measured at phase 2; format: functional; settings: sc
[5] = test system: Mus musculus; assay: Anticonvulsant activity against maximal electroshock-induced seizures in ip dosed Mus musculus Swiss (mouse) administered 30 min before MES induction measured at phase 2; format: functional
[6] = test system: Mus musculus; assay: Anticonvulsant activity against maximal electroshock-induced seizures in Mus musculus Swiss (mouse) at 30 mg/kg, ip administered 30 min before MES induction measured at phase 1; format: functional, organism-based; set-up: dose 30 mg/kg
[7] = test system: Mus musculus; assay: Anticonvulsant activity against subcutaneous pentylenetetrazole-induced seizures in Mus musculus Swiss (mouse) at 100 mg/kg, ip measured at phase 1; format: functional, organism-based; set-up: dose 100 mg/kg
[8] = test system: Mus musculus; assay: Anticonvulsant activity against subcutaneous pentylenetetrazole-induced seizures in Mus musculus Swiss (mouse) at 30 mg/kg, ip measured at phase 1; format: functional, organism-based; set-up: dose 30 mg/kg
[9] = test system: Mus musculus; assay: Anticonvulsant activity against maximal electroshock-induced seizures in Mus musculus Swiss (mouse) at 100 mg/kg, ip administered 30 min before MES induction measured at phase 1; format: functional, organism-based; set-up: dose 100 mg/kg
[10] = test system: Mus musculus; assay: Anticonvulsant activity against maximal electroshock-induced seizures in Mus musculus Swiss (mouse) at 300 mg/kg, ip administered 30 min before MES induction measured at phase 1; format: functional, organism-based; set-up: dose 300 mg/kg
[11] = test system: Mus musculus; assay: as §1; format: toxicity, organism-based; settings: in vivo

Compound	Ratio TD50/ED50 [1]	Ratio TD50/ED50 [2]	TD50 [3]	ED50 [4]	ED50 [5]	Activity [6]	Activity [7]	Activity [8]	Activity [9]	Activity [10]	TD50 [11]
CCCCCCOc1ccc2c(c1)CCCc1nncn1-2	3.4	4.8	84.2 mg/kg	24.6 mg/kg	17.7 mg/kg	Active	–	–	–	–	–
Clc1ccccc1COc1ccc2c(c1)CCCc1nncn1-2	<0.7	3.4	70.9 mg/kg	> 100 mg/kg	20.5 mg/kg	Active	inactive	inactive	–	–	–
c1ccc(COc2ccc3c(c2)CCCc2nncn2-3)cc1	1	3.3	78.9 mg/kg	78.9 mg/kg	23.7 mg/kg	Active	Active	inactive	–	–	–
Fc1cccc(COc2ccc3c(c2)CCCc2nncn2-3)c1	–	–	> 100 mg/kg	> 100 mg/kg	27.4 mg/kg	–	Active	inactive	Active	–	–
Clc1cccc(COc2ccc3c(c2)CCCc2nncn2-3)c1	1.5	4.1	120 mg/kg	80.7 mg/kg	29.5 mg/kg	–	Active	inactive	Active	–	–
NC(=O)N1c2ccccc2C=Cc2ccccc21 [CARBAMAZEPINE]	–	–	–	> 100 mg/kg	8.8 mg/kg	–	–	–	–	–	–
CCCCOc1ccc2c(c1)CCCc1nncn1-2	2	3.5	73.3 mg/kg	36.7 mg/kg	21.2 mg/kg	Active	Active	–	–	–	–
Brc1ccc(COc2ccc3c(c2)CCCc2nncn2-3)cc1	0.9	3	96.2 mg/kg	> 100 mg/kg	27 mg/kg	–	Active	inactive	Active	–	–
COc1ccc2c(c1)CCCc1nncn1-2	–	–	–	–	–	Active	inactive	inactive	–	Active	–
CCCCCOc1ccc2c(c1)CCCc1nncn1-2	5.4	6.5	114 mg/kg	21.2 mg/kg	17.5 mg/kg	Active	–	Active	–	–	–
Fc1ccccc1COc1ccc2c(c1)CCCc1nncn1-2	2.4	4.5	84.9 mg/kg	35.4 mg/kg	19 mg/kg	Active	Active	–	–	–	–
CCCCCCCOc1ccc2c(c1)CCCc1nncn1-2	2.6	3.5	68.4 mg/kg	26.4 mg/kg	19.7 mg/kg	Active	Active	–	–	–	–
CCCC(CCC)C(=O)O [VALPROIC ACID]	–	–	–	149 mg/kg	–	–	–	–	–	–	–
CCC1(c2ccccc2)C(=O)NC(=O)NC1=O [PHENOBARBITAL]	–	–	–	13.2 mg/kg	21.8 mg/kg	–	–	–	–	–	–
Fc1ccc(COc2ccc3c(c2)CCCc2nncn2-3)cc1	2.1	3.6	97.4 mg/kg	47.3 mg/kg	27.4 mg/kg	–	Active	–	Active	–	–
Clc1ccc(COc2ccc3c(c2)CCCc2nncn2-3)cc1	1.4	3.7	98.6 mg/kg	68.2 mg/kg	27.4 mg/kg	–	Active	inactive	Active	–	–
CCCOc1ccc2c(c1)CCCc1nncn1-2	–	–	–	> 100 mg/kg	73.3 mg/kg	–	inactive	inactive	Active	–	Not Active
Cc1ccc(COc2ccc3c(c2)CCCc2nncn2-3)cc1	1.1	3.6	82.9 mg/kg	90.1 mg/kg	27.4 mg/kg	–	inactive	inactive	Active	–	–
O=C1NC(=O)C(c2ccccc2)(c2ccccc2)N1 [PHENYTOIN]	–	–	–	> 300 mg/kg	–	–	–	–	–	–	–
